This note sets out measurements from patent US20250340511A1, “CELLULOSE SYNTHASE INHIBITORS AS A NEW CLASS OF HERBICIDE AND NON-GMO CROPS THAT ARE RESISTANT TO THE HERBICIDE” (Purdue Research Foundation, priority 2017, published 2025).

Like-named read-outs stand apart in the source and are kept apart here.

For one test, the system named is tomato. The test can be described thus: tomato growth on media containing ES20. The class given is in vivo. To be noted: grown on growth media containing ES20. The text has this:
(§1) FIG. 8B depicts 16-day-old tomato and horseweed grown on the media in the absence and presence of Cellulosin. Bars, 1 cm.
(§2) Because cellulose synthase is highly conserved in plants and ES20 targets the conserved catalytic domain, we hypothesize that ES20 is active in different plants, including common weeds. We tested this hypothesis by growing tomato and horseweed on growth media containing ES20.

Test [1] relates to any1 (CesA1 D604N) plants. Nature of the test: growth response of any1 mutant to ES20. The test is classed as in vivo, Arabidopsis. The text has this: (§3) FIG. 6A. Seedlings of Wildtype and fra5 grown on growth media supplemented with DMSO or ES20. FIG. 6B. Seedlings of Wildtype and any1 grown on growth media supplemented with DMSO or ES20. FIGS. 6C, 6D, 6E and 6F depict quantification on the growth of wildtype, […] and any/in the presence or absence of ES20.
(§4) Due to the conservation of plant CesAs in their central cytoplasmic domains, we hypothesized that ES20 targeted multiple CesAs to inhibit growth. In order to test this hypothesis, we tested the response of fra5 and any/to ES20. The mutant fra5 carries a mutation of P557T in Arabidopsis thaliana CesA7. CesA7 P557 aligns to CesA6 P595. […] The mutant any/carries a mutation of D604N in Arabidopsis CesA1. D604 in CesA1 aligns to D605 in CesA6.

The subject of test [2] is wildtype Arabidopsis seedlings. Nature of the test: Arabidopsis seedling root growth on media supplemented with compound. The class given is in vivo, Arabidopsis thaliana. To be noted: for activity at 1 µM: Arabidopsis thaliana. How it is done: FIG. 2A. […] FIG. 2B. […] FIG. 2C. Quantification on the root length of 6 days old wildtype and mutant seedlings grown on growth media supplemented with DMSO solvent control. FIG. 2D. […] FIG. 2E. The ratio of root length from plants grown on 1 μM ES20 and those grown on DMSO for each genotype. The root length of wildtype plants grown on 1 μM ES20 was reduced to about 25% of those grown on DMSO. […] FIG. 2F.
The root length of wildtype plants grown on 1 μM ES20 is about 20% of those that are grown on normal media.
Individual hypocotyl epidermal cells from plants grown on ES20 media are swollen as well in compare with those grown on regular media (FIG. 1H). These growth assays indicate that ES20 inhibits cell growth and causes cells to grow in an isotropic manner instead of anisotropic manner. The composition and organization of cell wall determines plant cell shapes.
In order to identify the cell growth pathways that are targeted by ES20, we performed a chemical genetic screen for mutants that have reduced sensitivity to this growth inhibitor. […] However, we found plants that have normal green cotyledons and leaves and elongated roots. These plants became obviously heathier and stronger than other plants after two weeks of growth on ES20 and were transferred to soil to get the M3 population. […] We generated the mapping population and used high-throughput whole genome sequencing to clone the mutant genes. […] 10 out of the 12 mutants were in CesA6 and two in CesA7. After two times of backcrosses, we consistently detected less sensitivity in these mutants to ES20 (FIGS. 2A to 2E).
In order to identify key structure in ES20 that causes its inhibition activity, we collected three close analogs of ES20 (FIG. 7A) and tested for their effect in inhibiting plant growth.

Test [3] relates to fra5 (CesA7 P557T) plants. The test can be described thus: growth response of fra5 mutant to ES20. The class given is in vivo, Arabidopsis thaliana.
Description: as §3, §4

The subject of test [4] is dark-grown Arabidopsis hypocotyls. Nature of the test: crystalline cellulose content in dark-grown seedlings. The class given is in vivo, Arabidopsis thaliana. To be noted: concentration printed as 'M ES20'. The text has this: Swollen cells and organs in plants are often caused by direct or indirect disruption of cell wall biosynthesis or organization. For example, swollen cells and roots have been found in cesa mutants and in plants treated with inhibitors of cellulose synthesis and microtubule organization (Arioli, T., et al., Science 1998, 279, 717-720; Burn, J. E., et al., Plant Physiol. 2002, 129, 797-807). The retarded growth and cell swollen phenotypes indicate that ES20 could affect cell growth through interfering with cell wall biosynthesis or organization. To test whether ES20 affects cell wall composition, we took the straightforward approach of analyzing crystallize cellulose content in seedlings grown in the presence of different concentrations of ES20 (Updegraff, D. M. Anal. Biochem. 1969, 32, 420-424). […] The content of crystalline cellulose in seedlings grown on M ES20 was reduced to about 50% of the seedlings grown in the absence of ES20 (FIG. 1J).

The target in test [5] is T1, CesA6 central cytoplasmic domain (Arabidopsis thaliana, UniProt Q94JQ6).
T1 construct: we expressed and purified the central cytoplasmic domain of CesA6 from E. coli; made in house; host or cells: E. coli
T1 sequence (Q94JQ6 322-868 limits assumed): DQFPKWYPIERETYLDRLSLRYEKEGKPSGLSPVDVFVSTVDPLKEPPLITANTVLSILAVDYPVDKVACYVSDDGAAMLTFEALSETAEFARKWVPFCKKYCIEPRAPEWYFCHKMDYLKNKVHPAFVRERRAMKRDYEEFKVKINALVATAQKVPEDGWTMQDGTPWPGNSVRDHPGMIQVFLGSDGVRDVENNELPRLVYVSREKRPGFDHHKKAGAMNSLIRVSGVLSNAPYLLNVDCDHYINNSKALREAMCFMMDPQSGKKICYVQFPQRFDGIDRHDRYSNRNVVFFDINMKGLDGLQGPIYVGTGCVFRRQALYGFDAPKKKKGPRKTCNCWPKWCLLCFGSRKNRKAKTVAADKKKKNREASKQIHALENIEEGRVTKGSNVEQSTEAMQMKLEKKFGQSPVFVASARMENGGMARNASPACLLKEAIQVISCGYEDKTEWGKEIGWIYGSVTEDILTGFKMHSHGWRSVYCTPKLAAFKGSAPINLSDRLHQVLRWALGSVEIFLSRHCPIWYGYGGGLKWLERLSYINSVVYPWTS
Nature of the test: biochemical. The class given is binding. To be noted: MST; SUMO-His / GFP tagged CesA6 central cytoplasmic domain purified from E. coli; read-out: dissociation constant (Kd).

Test [6] relates to cesa6 E929K mutant and transgenic plants that express CesA6 E929K in wildtype. Nature of the test: root growth of cesa6 E929K mutant and CesA6 E929K transgenic plants. The class given is in vivo. To be noted: Arabidopsis thaliana; 1 μM of ES20; read-out: root length relative to plants grown on normal media. The text has this: The root length of […] mutant and transgenic plants that express CesA6^E929K in wildtype is about 80% of those grown on normal media.
The mutations we found are located in Arabidopsis thaliana CesA6 (AT5G64740), CesA4 (AT5G44030), CesA7 (AT5G17420) and CesA8 (AT4G18780) genes. Single nucleotide change in these mutants causes single amino acid change in CesA proteins and lead to reduced sensitivity to cellulosin (endosidin20 or ES20). The mutations we have discovered are listed in Table 1 and FIG. 11A showing the conserved amino acid residues of those subtypes of cellulose synthases. […] One is to create mutations in CesA6 homology gene in crop. The second is to express the mutant CesA6 in crops without knocking out endogenous CesA genes.

The subject of test [7] is general membrane trafficking (PIN2, BRI1, HDEL-GFP, Gop1p-YFP, SYP61-CFP, VHA1-GFP). Nature of the test: live cell imaging of fluorescence-tagged cargo and organelle markers. The test is classed as cell-based, Arabidopsis. How it is done:
Transgenic plants expressing different fluorescence-tagged proteins were examined for their cellular localization in the DMSO control treatment and after 2 hours of 5 μM ES20 treatment.
(§5) In order to identify small molecules that could be used in studying plant membrane trafficking, chemical libraries have been screened first using tobacco pollen growth assay and then Arabidopsis live cell imaging assay (Drakakaki G. et al., Proc Natl Acad Sci USA 2011, 108, 17850-17855). In primary screen, small molecules that inhibited pollen gemination or pollen tube growth in in vitro culture condition were selected. For secondary screen, selected small molecules were tested in Arabidopsis plants expressing different fluorescence-tagged cellular markers. […] Locations of general organelle markers, such as HDEL-GFP (Endoplasmic Reticulum, ER), Gop1p-YFP (Golgi), SYP61-CFP (Trans-Golgi Network, TGN) and VHA1-GFP (TGN), are unaffected as well by ES20 treatment (FIGS. 9A and 9B).

For test [8], the system named is CSC (YFP-CesA6) trafficking in root epidermal cells. The test can be described thus: YFP-CesA6 localization and FRAP after short-term ES20 treatment. The class given is cell-based, Arabidopsis. The text has this:
FIGS. 5A and 5B. […] FIGS. 5C and 5D. […] FIGS. 5E and 5F. The exocytic delivery of CSC to the plasma membrane was reduced after ES20 treatment. *** indicates p<0.001 by paired t-test.
A large knowledge gap in plant biology is that it is […] how the activities of large protein complexes, such as CSC, are integrated with their cellular transport. Golgi localized CSCs are delivered to the plasma membrane to catalyze cellulose synthesis. CSCs are also localized to some small vesicles named SmaCCs. It is not known what occurs to CSCs when the catalytic core fails to bind a functional substrate. In order to understand better on the integration of CSC catalytic activity and CSC trafficking, we took a straight approach and observed the localization of CesA6 after short-term ES20 treatment. […] Reduced CSC density at the plasma membrane and increased SmaCCs density could be the result of increased endocytosis or decreased exocytic delivery of CSC. We then performed fluorescence recovery after photobleaching experiment to test whether the exocytic delivery of CSC was affected by ES20 treatment. We bleached YFP-CesA6 fluorescence at the plasma membrane and then observed the delivery of new CSC to the plasma membrane (FIG. 5D).

For another test, the system named is horseweed. The test can be described thus: horseweed growth on media containing ES20. The test is classed as in vivo. Conditions: grown on growth media containing ES20.
Description: as §1, §2

In a further test the test system is tobacco pollen tube. Nature of the test: tobacco pollen growth assay. The class given is cell-based. Conditions: in vitro culture. The protocol:
as §5

On to `COc1ccc(C(=O)NC(=S)NNC(=O)c2ccccc2C)cc1` [ES20], for which, in the test on tomato, the “growth inhibition of tomato” value is “significantly inhibit the growth”. Further, in test [1], the “sensitivity of any1 plants to ES20” value is “less sensitive to ES20”. Moreover, the “root phenotype after short-term treatment” value in test [2] (5 μM for 12 hours in liquid growth media) is recorded as “roots became swollen in the tip region”. For the same molecule, the activity at 1 µM in [2] (144 h, read-out: root length relative to plants grown on DMSO) is approximately 25%; in [2] (read-out: root length relative to plants grown on normal media) it was approximately 20%; in test [6], approximately 80%. Also, the “hypocotyl phenotype of seedlings grown under dark condition” value in [2] (dark-grown, dosage dependent) is “shorter and swollen hypocotyls”. For the same molecule, the root growth arrest result in [2] (wild type plants, 5 μM) is recorded as “completely arrests root growth”. Also, the “root phenotype of seedlings grown on media with compound” value in test [2] (wildtype, dosage dependent) is “shorter and swollen roots”. The “sensitivity of fra5 plants to ES20” value in test [3] was “reduced sensitivity to ES20”. Besides, in test [4], the “content of crystalline cellulose relative to seedlings grown in the absence of ES20” value is given as “about 50%”. The Kd (as a rule, the constant that tells how readily two partners part at equilibrium) in [5] stood at 15.4 ± 5.9 µM. The “trafficking of cargo proteins PIN2 and BRI1” value in test [7] is on record as “did not significantly affect the trafficking”. Also, in test [7] (2 hours of 5 μM ES20 treatment (FIGS. 9A, 9B)), the “locations of general organelle markers (ER, Golgi, TGN)” value was “unaffected”. Moreover, in [8] (root epidermal cells, short-term ES20 treatment), the “density of plasma membrane localized CesA6” value is listed as “significantly reduced”. In test [8] (short-term ES20 treatment), the “numbers of SmaCCs that contain CesA6” value is “significantly increased”. Further, the “CSC delivery to the plasma membrane (FRAP)” value in [8] (versus DMSO control) is “significantly lower than the DMSO control”. The “growth inhibition of horseweed” value in the test on horseweed is listed as “significantly inhibit the growth”. Also, the “tobacco pollen tube growth” value in the test on tobacco pollen tube is on record as “inhibited tobacco pollen tube growth”.
